The values that follow come from patent publication US20010044404A1, “Cleaning process and composition” (3M Innovative Properties Company, priority 1995, published 2001).

The nature of series [1]: Mineral oil removal from aluminum coupon, sonication in solvent. Particulars: sonicated 1 minute. The method, then:
In the following Examples and Comparative Examples, the cleaning ability of the alkoxy-substituted perfluorocompounds used in the cleaning process of the invention was further evaluated. A 1.28 cm×1.28 cm×0.225 cm wire-wrapped, aluminum coupon was coated with white heavy mineral oil (available from Aldrich Chemical) by immersing the coupon in an oil-filled beaker. The initial amount of the oil on the coupon was determined by weighing it on an analytical balance to the nearest 0.1 mg. The coupon was immersed in a container of solvent and sonicated for 1 minute at the indicated temperature (see Table 3 below for the solvents and temperatures used). The coupon was then weighed again, and the results were recorded in Table 3 as percent oil removal.

Series [2] in a line: Stability in the presence of base: aqueous NaOAc, fluoride ion measurement. Particulars: 10 g with 10 g 0.1M NaOAc, 110° C., 16 hours. It is filed as physicochemical. The method, then: To assess hydrolytic stability, a ten gram sample of alkoxy-substituted perfluorocompound was combined with 10 g of 0.1M NaOAc and sealed in a 2.54 cm (internal diameter) by 9.84 cm Monel™ 400 alloy (66% nickel, 31.5% copper, and 1.2% iron and several minor components) tube (available from Paar Instrument Co. of Moline, Ill. as Part Number 4713cm). The tube was heated at 110° C. in a forced air convection oven for 16 hours. After cooling to room temperature, a 1 mL sample of the tube contents was diluted with 1 mL of total ionic strength adjustment buffer (TISAB, available from Orion Research, Inc., a mixture of 1,2-cyclohexylene dinitrilotetraacetic acid, deionized water, sodium acetate, sodium chloride, and acetic acid). The concentration of fluoride ion (resulting from any reaction of the perfluorocompound with the aqueous NaOAc) was measured using an Orion Model 720A Coulombmeter with a F-specific electrode which had been previously calibrated using 0.5 and 500 ppm F^− solutions. Based on the measured fluoride ion concentration, the rate at which HF had been generated by reaction of the aqueous NaOAc with the perfluorocompound was calculated.

Series [3] in a line: Rinse agent in co-solvent cleaning of solder flux. Particulars: solvating agent 1 minute at about 55° C., then 30 seconds in boiling solvent. The procedure:
The ability of alkoxy-substituted perfluorocompounds to function as a rinse agent in a co-solvent cleaning process was evaluated. The above-described aluminum coupon was coated with solder flux (available from Alpha Metals as Alpha 611 rosin, mildly activated flux) by immersing the coupon into a flux-filled beaker. The flux-coated coupon was then dried using a forced air convection drier. The initial amount of the flux on the coupon was determined by weighing it on an analytical balance to the nearest 0.1 mg. The coupon was immersed in a container of a mixed solvating agent comprising approximately 50% methyl decanoate and 50% dipropylene glycol di-n-butyl ether and was sonicated for 1 minute at approximately 55° C. The coupon was then immersed for 30 seconds into alkoxy-substituted perfluorocompound which had been heated to its boiling point. The coupon was weighed again, and the results were recorded in Table 5 below as percent oil removed from the coupon.

A short description of series [4]: Flash point testing ASTM D3278-89. The class given is physicochemical. The procedure:
The alkoxy-substituted perfluorocompounds C4F9OCH3, C4F9OC2H5, and c-C6F11OCH3 were tested for flash point by the standard method defined by ASTM D3278-89.

A short description of series [5]: Fluorinated oil removal from aluminum coupon. The following applies: Krytox 157FSM, room temperature. The method, then:
Using essentially the same procedure as that described in Examples 8-10, the ability of the alkoxy-substituted perfluorocompounds to remove a fluorinated oil was evaluated. As in the previous Examples, a coupon was immersed in Krytox™ 157FSM perfluoropolyether oil having carboxylic acid end groups (available from DuPont), and the percent oil remaining after immersion in the solvent (at room temperature) was determined.

Series [6] in a line: Ability to dissolve halogenated oils (miscibility). It is filed as physicochemical. Particulars: room temperature. The method, then:
The ability of alkoxy-substituted perfluorocompounds to dissolve several halogenated oils was determined by adding a measured amount of oil to alkoxy-substituted perfluorocompound until the resulting mixture became turbid or phase-split. […] The results (shown in Table 12) indicate that alkoxy-substituted perfluorocompounds have very high ability to dissolve halogenated oils. Thus, the perfluorocompounds can be used as carrier solvents for halogenated oils in the deposition of coatings of such oils on substrate surfaces.

Series [7] can be described thus: Stability in the presence of acid (96% sulfuric acid, GLC). The following applies: neat ether; sulfuric acid as in Stability in the Presence of Acid section. The class given is physicochemical. The procedure:
To assess hydrolytic stability under acidic conditions, C4F9OCH3 (15 g, 0.06 mole) was combined with sulfuric acid (10 g of 96% by weight, 0.097 mole) in a 50 mL flask containing a stir bar and fitted with a reflux condenser. The resulting mixture was stirred for 16 hours at room temperature, and then the resulting upper fluorochemical phase was separated from the resulting lower sulfuric acid phase. […] Chem. 49, 4007 (1984), which states that “[f]luorine atoms attached to carbon which also bears an alkyl ether group are known to be labile to electrophilic reagents. They are readily hydrolyzed in concentrated sulfuric acid, thus providing a route to some esters of fluoroacids.”

A short description of series [8]: Open cup flash point ASTM D1310-86. It is filed as physicochemical. The method, then: (§1) Various properties were measured for C4F9OCH3, CHClFCF2OCH3, and blends of each ether compound with cosolvent, trans-1,2-dichloroethylene (hereinafter, t-DCE) or n-butyl bromide, at various weight ratios.
The nature of series [9]: Closed cup flash point ASTM D3278-96. It is filed as physicochemical. The method, then: as §1
Series [10] is described as follows: Solvency properties: largest normal hydrocarbon alkane soluble at 50 percent by volume.
Experimental: A number of potential solvents were tested for their ability to dissolve hydrocarbons of increasing molecular weight according to the procedure described in U.S. Pat. No. 5,275,669 (Van Der Puy et al.), the description of which is incorporated herein by reference. The data shown in Table 1 were obtained by determining the largest normal hydrocarbon alkane which was soluble in a particular solvent at a level of 50 percent by volume. The numbers in the Table correspond with the carbon number of the largest alkane, e.g., “8” refers to octane. Measurements were made from room temperature up to the boiling point of the solvent. For comparative purposes, hydrofluorocarbons (HFCs) and perfluorocarbons (PFCs) were also tested using this method.
Using essentially the above-described method, the solvency properties of other alkoxy-substituted perfluorocompounds were tested at room temperature.
[11] abbreviates: 20 weight % ether, 80 % n-butyl bromide.
Setting [12] is: 30 weight % ether, 70 % n-butyl bromide.
Where [13] appears, read: 50 weight % ether, 50 % n-butyl bromide.
The mark [14] stands for this setting: 80 weight % ether, 20 % n-butyl bromide.

In the case of `FC(F)(Cl)C(F)(Cl)Cl` [CF2ClCFCl2, reference compound], the values for the percent oil removal in series [1] (23 ° C.) and in [1] (50 ° C.) were 98.9% and 98.7%, respectively.

`FC(C(F)C(F)(F)C(F)(F)F)C(F)(F)F` (centres unmarked) [reference compound]: the “HF Generation Rate” value in series [2] was 42.9 µg/g/h.

As to `FC(F)C(F)(F)C(F)(F)C(F)(F)C(F)(F)C(F)(F)F` [Example C6F13H, C6F13H, reference compound], the percent oil removal in series [1] (23 ° C.) turned out to be 71.7%; in series [1] (50 ° C.), 86.8%. Moreover, the “% Removed” value in [3] is listed as 91.2%.

With `COC1(F)C(F)(F)C(F)(F)C(F)(F)C(F)(F)C1(F)F` [c-C6F11OCH3], the “HF Generation Rate” value in series [2] stood at 0.33 µg/g/h. In addition, the Flash point entry in [4] is recorded as “no flash point”. For the same molecule, the percent oil removal in series [1] (23 ° C.) was found to be 74.4%; in [1] (50 ° C.), 96.5%; in series [1] (60 ° C.) it was 99.8%. In addition, the “% Removed” value in series [5] is given as 96.5%; in [3], 100.0%. Also, the Miscibility with solute result in series [6] (Brayco 815Z Perfluoropolyether (MW about 10,000)), in series [6] (Chlorotrifluoroethylene Fluid (Inland 41 Vacuum Pump Oil)) and in [6] (Fomblin AM-2001 Functionalized Perfluoropolyether) was “Miscible (greater than or equal to 50 percent by volume solubility at room temperature)” each time.

Take `COC(F)(F)C(F)Cl` (centres unmarked) [CHClFCF2OCH3, 2-chloro-1,1,2-trifluoroethyl methyl ether, reference compound]: the “Stability in Presence of Acid: conversion to ester” value in series [7] was 100%. The “Open Cup Flash Point (ASTM D1310-86)” value in series [8] (20 weight % ether, 80 % t-DCE) was 80 (27) ° F. (° C.); in [8] (50 weight % ether, 50 % t-DCE), 80 (27) ° F. (° C.); in series [8] (80 weight % ether, 20 % t-DCE), 85 (29) ° F. (° C.); in series [8] (100 weight % ether, 0 % t-DCE), 76 (24) ° F. (° C.). The “Closed Cup Flash Point (ASTM D3278-96)” value in series [9] (setting [11]) is given as 50 (7) ° F. (° C.); in [9] (setting [12]) it was 45 (10) ° F. (° C.); in series [9] (setting [13]) it was 45 (7) ° F. (° C.); in series [9] (setting [14]) it was 50 (10) ° F. (° C.); in series [9] (100 weight % ether, 0 % n-butyl bromide, raised to 140° F. (60° C.)) it was 45 (7) ° F. (° C.). For the same molecule, the “Largest Carbon Number of Longest Hydrocarbon Alkane to Dissolve” value in series [10] (setting [11]) is given as 21; in series [10] (20 weight % ether, 80 % t-DCE) it was 27; in [10] (setting [12]) it was 21; in series [10] (setting [13]), 20; in series [10] (50 weight % ether, 50 % t-DCE) it was 21; in series [10] (setting [14]), 19. The “Largest Carbon Number of Longest Hydrocarbon Alkane to Dissolve” value stood at 19 in series [10] (80 weight % ether, 20 % t-DCE); 18 in series [10] (100 weight % ether, 0 % n-butyl bromide); 18 in series [10] (100 weight % ether, 0 % t-DCE).
